Target: T1, mutant MGL (Homo sapiens, UniProt Q99685, L169S/L176S)
T1 sequence (Q99685 1-303 L169S/L176S): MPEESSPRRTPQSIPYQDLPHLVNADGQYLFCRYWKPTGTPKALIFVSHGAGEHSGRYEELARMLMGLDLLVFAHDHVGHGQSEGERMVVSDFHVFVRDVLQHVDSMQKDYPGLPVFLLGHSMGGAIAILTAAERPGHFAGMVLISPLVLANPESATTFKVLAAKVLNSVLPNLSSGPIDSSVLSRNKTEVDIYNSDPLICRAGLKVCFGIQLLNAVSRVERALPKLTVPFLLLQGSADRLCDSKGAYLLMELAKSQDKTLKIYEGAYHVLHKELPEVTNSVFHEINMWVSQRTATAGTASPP
Assay: MGL ThermoFluor assay - mutant
Type: binding
Conditions: ThermoFluor concentration-response, read-out: MGL mutant ThermoFluor Kd

| SMILES | Kd [nM] |
| --- | --- |
| O=C(c1cscn1)N1CCN(C2CN(C(=O)[C@@H]3C[C@H]3c3ccc(SC(F)(F)F)cc3)C2)CC1 (racemic) [Cpd 645, 1-(1,3-Thiazol-4-ylcarbonyl)-4-(1-{[(1RS,2RS)-2-{4-[(trifluoromethyl)sulfanyl]phenyl}cyclopropyl]carbonyl}azetidin-3-yl)piperazine] | 5440 |
| O=C(c1ccccc1)N1CCN(C2CN(C(=O)c3ccc(C4CCCCC4)cc3)C2)CC1 [Cpd 1, 1-{1-[(4-Cyclohexylphenyl)carbonyl]azetidin-3-yl}-4-(phenylcarbonyl)-piperazine] | 5.9 |
| Cn1ccnc1C(=O)N1CCN(C2CN(C(=O)c3ccc(C4CCCCC4)cc3)C2)CC1 [Cpd 3, 1-{1-[(4-Cyclohexylphenyl)carbonyl]azetidin-3-yl}-4-[(1-methyl-1H-imidazol-2-yl)carbonyl]piperazine] | 2500 |
| O=C(c1ccc(C2CCCCC2)cc1)N1CC(N2CCN(C(=O)c3ccccn3)CC2)C1 [Cpd 4, 1-{1-[(4-Cyclohexylphenyl)carbonyl]azetidin-3-yl}-4-(pyridin-2-ylcarbonyl)piperazine] | 143 |
| O=C(c1ccc(-c2ccccc2)cc1)N1CC(N2CCN(C(=O)c3cncs3)CC2)C1 [Cpd 8, 1-[1-(Biphenyl-4-ylcarbonyl)azetidin-3-yl]-4-(1,3-thiazol-5-ylcarbonyl)piperazine] | 111 |
| Cc1nc(C(=O)N2CCN(C3CN(C(=O)c4ccc(-c5ccccc5)cc4)C3)CC2)cs1 [Cpd 10, 1-[1-(Biphenyl-4-ylcarbonyl)azetidin-3-yl]-4-[(2-methyl-1,3-thiazol-4-yl)carbonyl]piperazine] | 556 |
| Cn1cccc1C(=O)N1CCN(C2CN(C(=O)c3ccc(-c4ccccc4)cc3)C2)CC1 [Cpd 11, 1-[1-(Biphenyl-4-ylcarbonyl)azetidin-3-yl]-4-[(1-methyl-1H-pyrrol-2-yl)carbonyl]piperazine] | 454 |
| Cc1ccc(C(=O)N2CCN(C3CN(C(=O)c4ccc(-c5ccccc5)cc4)C3)CC2)s1 [Cpd 14, 1-[1-(Biphenyl-4-ylcarbonyl)azetidin-3-yl]-4-[(5-methylthiophen-2-yl)carbonyl]piperazine] | 250 |
| O=C(c1ccc(-c2ccccc2)cc1)N1CC(N2CCN(C(=O)c3ccc(Br)s3)CC2)C1 [Cpd 15, 1-[1-(Biphenyl-4-ylcarbonyl)azetidin-3-yl]-4-[(5-bromothiophen-2-yl)carbonyl]piperazine] | 286 |
| Cc1cc(Br)ccc1C(=O)N1CC(N2CCN(C(=O)c3ccccc3)CC2)C1 [Cpd 22, 1-{1-[(4-Bromo-2-methylphenyl)carbonyl]azetidin-3-yl}-4-(phenylcarbonyl)piperazine] | > 76700 |
| COc1cc(C(=O)N2CC(N3CCN(C(=O)c4cscn4)CC3)C2)ccc1Br [Cpd 23, 1-{1-[(4-Bromo-3-methoxyphenyl)carbonyl]azetidin-3-yl}-4-(1,3-thiazol-4-ylcarbonyl)piperazine] | 5000 |
| COc1cc(C(=O)N2CC(N3CCN(C(=O)c4ccccc4)CC3)C2)ccc1Br [Cpd 24, 1-{1-[(4-Bromo-3-methoxyphenyl)carbonyl]azetidin-3-yl}-4-(phenylcarbonyl)piperazine] | 5000 |
| O=C(c1cscn1)N1CCN(C2CN(C(=O)c3ccc(Br)cc3Cl)C2)CC1 [Cpd 25, 1-{1-[(4-Bromo-2-chlorophenyl)carbonyl]azetidin-3-yl}-4-(1,3-thiazol-4-ylcarbonyl)piperazine] | 10000 |
| O=C(c1ccccc1)N1CCN(C2CN(C(=O)c3ccc(Br)cc3)C2)CC1 [Cpd 27, 1-{1-[(4-Bromophenyl)carbonyl]azetidin-3-yl}-4-(phenylcarbonyl)piperazine] | 4550 |
| O=C(c1ccccc1)N1CCN(C2CN(C(=O)c3ccc(-n4cccc4)cc3)C2)CC1 [Cpd 28, 1-(Phenylcarbonyl)-4-(1-{[4-(1H-pyrrol-1-yl)phenyl]carbonyl}azetidin-3-yl)piperazine] | 370 |
| O=C(c1ccccc1)N1CCN(C2CN(C(=O)c3ccc(N4CCCC4)cc3)C2)CC1 [Cpd 29, 1-(Phenylcarbonyl)-4-{1-[(4-pyrrolidin-1-ylphenyl)carbonyl]azetidin-3-yl}piperazine] | 100 |
| CCN(CC)c1ccc(C(=O)N2CC(N3CCN(C(=O)c4ccccc4)CC3)C2)cc1 [Cpd 30, N,N-Diethyl-4-({3-[4-(phenylcarbonyl)piperazin-1-yl]azetidin-1-yl}carbonyl)aniline] | 118 |
| CN(C)c1ccc(C(=O)N2CC(N3CCN(C(=O)c4ccccc4)CC3)C2)cc1 [Cpd 31, N,N-Dimethyl-4-({3-[4-(phenylcarbonyl)piperazin-1-yl]azetidin-1-yl}carbonyl)aniline] | 1430 |
| O=C(c1ccccc1)N1CCN(C2CN(C(=O)c3ccc(Oc4ccccc4)cc3)C2)CC1 [Cpd 32, 1-{1-[(4-Phenoxyphenyl)carbonyl]azetidin-3-yl}-4-(phenylcarbonyl)piperazine] | 192 |

| SMILES | Kd [nM] |
| --- | --- |
| O=C(c1ccccc1)N1CCN(C2CN(C(=O)c3ccc(-c4ccc(F)cc4)cc3)C2)CC1 [Cpd 33, 1-{1-[(4′-Fluorobiphenyl-4-yl)carbonyl]azetidin-3-yl}-4-(phenylcarbonyl)piperazine] | 9.1 |
| COc1ccc(-c2ccc(C(=O)N3CC(N4CCN(C(=O)c5ccccc5)CC4)C3)cc2)cc1 [Cpd 34, 1-{1-[(4′-Methoxybiphenyl-4-yl)carbonyl]azetidin-3-yl}-4-(phenylcarbonyl)piperazine] | 588 |
| O=C(c1ccccc1)N1CCN(C2CN(C(=O)c3ccc(OCc4ccccc4)cc3)C2)CC1 [Cpd 35, 1-(1-{[4-(Benzyloxy)phenyl]carbonyl}azetidin-3-yl)-4-(phenylcarbonyl)piperazine] | 83.3 |
| O=C(c1ccccc1)N1CCN(C2CN(C(=O)c3ccc(-c4ccccc4Cl)cc3)C2)CC1 [Cpd 36, 1-{1-[(2′-Chlorobiphenyl-4-yl)carbonyl]azetidin-3-yl}-4-(phenylcarbonyl)piperazine] | 37 |
| CC(C)n1c(C(F)(F)F)nc2cc(C(=O)N3CC(N4CCN(C(=O)c5ccccc5)CC4)C3)ccc21 [Cpd 38, 1-(1-Methylethyl)-5-({3-[4-(phenylcarbonyl)piperazin-1-yl]azetidin-1-yl}carbonyl)-2-(trifluoromethyl)-1H-benzimidazole] | 182 |
| CCCn1ccc2cc(C(=O)N3CC(N4CCN(C(=O)c5ccccc5)CC4)C3)ccc21 [Cpd 42, 5-({3-[4-(Phenylcarbonyl)piperazin-1-yl]azetidin-1-yl}carbonyl)-1-propyl-1H-indole] | 83.3 |
| O=C(c1ccccc1)N1CCN(C2CN(C(=O)c3ccc(-n4cnc5ccccc54)cc3)C2)CC1 [Cpd 48, 1-[4-({3-[4-(Phenylcarbonyl)piperazin-1-yl]azetidin-1-yl}carbonyl)phenyl]-1H-benzimidazole] | 1000 |
| O=C(c1ccccc1)N1CCN(C2CN(C(=O)c3ccc(F)cc3)C2)CC1 [Cpd 49, 1-{1-[(4-Fluorophenyl)carbonyl]azetidin-3-yl}-4-(phenylcarbonyl)piperazine] | 6670 |
| O=C(c1ccccc1)N1CCN(C2CN(C(=O)c3cnc(NCc4ccccc4)s3)C2)CC1 [Cpd 50, N-Benzyl-5-({3-[4-(phenylcarbonyl)piperazin-1-yl]azetidin-1-yl}carbonyl)-1,3-thiazol-2-amine] | 10000 |
| Cn1c2ccccc2c2cc(C(=O)N3CC(N4CCN(C(=O)c5ccccc5)CC4)C3)ccc21 [Cpd 51, 9-Methyl-3-({3-[4-(phenylcarbonyl)piperazin-1-yl]azetidin-1-yl}carbonyl)-9H-carbazole] | 250 |
| O=C(c1ccccc1)N1CCN(C2CN(C(=O)c3ccccc3NCc3ccccc3)C2)CC1 [Cpd 52, N-Benzyl-2-({3-[4-(phenylcarbonyl)piperazin-1-yl]azetidin-1-yl}carbonyl)aniline] | 3330 |
| O=C(c1ccccc1)N1CCN(C2CN(C(=O)c3ccc(N4CCCCC4)cc3)C2)CC1 [Cpd 53, 1-(Phenylcarbonyl)-4-{1-[(4-piperidin-1-ylphenyl)carbonyl]azetidin-3-yl}piperazine] | 100 |
| O=C(c1ccccc1)N1CCN(C2CN(C(=O)c3ccc4[nH]c5c(c4c3)CCCC5)C2)CC1 [Cpd 55, 6-({3-[4-(Phenylcarbonyl)piperazin-1-yl]azetidin-1-yl}carbonyl)-2,3,4,9-tetrahydro-1H-carbazole] | 25000 |
| N#Cc1cccc(-c2ccc(C(=O)N3CC(N4CCN(C(=O)c5ccccc5)CC4)C3)cc2)c1 [Cpd 76, 4′-({3-[4-(Phenylcarbonyl)piperazin-1-yl]azetidin-1-yl}carbonyl)biphenyl-3-carbonitrile] | 333 |
| O=C(c1ccccc1)N1CCN(C2CN(C(=O)c3ccc(-c4ccc(Cl)cc4)cc3)C2)CC1 [Cpd 78, 1-{1-[(4′-Chlorobiphenyl-4-yl)carbonyl]azetidin-3-yl}-4-(phenylcarbonyl)piperazine] | 80 |
| O=C(c1ccccc1)N1CCN(C2CN(C(=O)c3ccc(-c4cc(Cl)cc(Cl)c4)cc3)C2)CC1 [Cpd 79, 1-{1-[(3′,5′-Dichlorobiphenyl-4-yl)carbonyl]azetidin-3-yl}-4-(phenylcarbonyl)piperazine] | 26.6 |
| O=C(c1ccccc1)N1CCN(C2CN(C(=O)c3cncc(-c4ccccc4)c3)C2)CC1 [Cpd 80, 1-(Phenylcarbonyl)-4-{1-[(5-phenylpyridin-3-yl)carbonyl]azetidin-3-yl}piperazine] | 49500 |
| O=C(c1ccccc1)N1CCN(C2CN(C(=O)c3ccc(-c4ccccc4)c(F)c3)C2)CC1 [Cpd 81, 1-{1-[(2-Fluorobiphenyl-4-yl)carbonyl]azetidin-3-yl}-4-(phenylcarbonyl)piperazine] | 66.7 |
| N#Cc1ccc(-c2ccc(C(=O)N3CC(N4CCN(C(=O)c5ccccc5)CC4)C3)cc2)cc1 [Cpd 82, 4′-({3-[4-(Phenylcarbonyl)piperazin-1-yl]azetidin-1-yl}carbonyl)biphenyl-4-carbonitrile] | 571 |
